From patent US6355799B1, “Substituted benzene compounds, process for their preparation, and herbicidal and defoliant compositions containing them” (ISK Americas Incorporated, priority 1997, dated 2002)

Key:
Type in all cases: in vivo
[1] = test system: lambsquarters (Chenopodium album, CHEAL); assay: Pre-emerge test, greenhouse herbicide activity screening; conditions: for Pre-emerge Herbicidal Activity CHEAL (phytotoxicity rating, scale 0-100): rated 14 days after application, 0 = no damage, 100 = complete death
Method in brief: (§1)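 Visual ratings on a 0-100 scale (0 no damage, 100 all plants dead) were taken at 14 days after treatment. Rates of 15-1000 g ai/ha in acetone, 187 l/ha, were sprayed onto soil one day after planting (pre-emerge) or onto 2-3 leaf plants with 0.25% v/v surfactant (post-emerge).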

[2] = test system: green foxtail (Setaria viridis, SETVI); assay: as above; conditions: for Pre-emerge Herbicidal Activity SETVI (phytotoxicity rating, scale 0-100): rated 14 days after application, 0 = no damage, 100 = complete death
Method in brief: as §1

[3] = test system: sicklepod (Cassia obtusifolia, CASOB); assay: as above; conditions: for Pre-emerge Herbicidal Activity CASOB (phytotoxicity rating, scale 0-100): rated 14 days after application, 0 = no damage, 100 = complete death
Method in brief: as §1

[4] = test system: barnyardgrass (Echinochloa crus-galli, ECHCG); assay: as above; conditions: for Pre-emerge Herbicidal Activity ECHCG (phytotoxicity rating, scale 0-100): rated 14 days after application, 0 = no damage, 100 = complete death
Method in brief: as §1

[5] = test system: johnsongrass (Sorghum halepense, SORHA); assay: as above; conditions: for Pre-emerge Herbicidal Activity SORHA (phytotoxicity rating, scale 0-100): rated 14 days after application, 0 = no damage, 100 = complete death
Method in brief: as §1

[6] = test system: ivyleaf morningglory (Ipomoea hederacea, IPOHE); assay: as above; conditions: for Pre-emerge Herbicidal Activity IPOHE (phytotoxicity rating, scale 0-100): rated 14 days after application, 0 = no damage, 100 = complete death
Method in brief: as §1

[7] = test system: large crabgrass (Digitaria sanguinalis, DIGSA); assay: as above; conditions: for Pre-emerge Herbicidal Activity DIGSA (phytotoxicity rating, scale 0-100): rated 14 days after application, 0 = no damage, 100 = complete death
Method in brief: as §1

[8] = test system: velvetleaf (Abutilon theophrasti, ABUTH); assay: as above; conditions: for Pre-emerge Herbicidal Activity ABUTH (phytotoxicity rating, scale 0-100): rated 14 days after application, 0 = no damage, 100 = complete death
Method in brief: as §1

[9] = test system: lambsquarters (Chenopodium album, CHEAL); assay: Post-emerge test, greenhouse herbicide activity screening; conditions: 14 days after application; for phytotoxicity rating CHEAL: post-emerge, rating scale 0-100
Method in brief: (§2)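 Fourteen days after spraying, crop and weed injury was graded visually from 0, no effect, to 100, every plant dead. Test substances were dissolved in acetone and applied at 15–1000 g ai/ha with a flat-fan nozzle. Application was either pre-emergence, one day after sowing, or post-emergence at the 2–3 leaf stage.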

[10] = test system: green foxtail (Setaria viridis, SETVI); assay: as above; conditions: 14 days after application; for phytotoxicity rating SETVI: post-emerge, rating scale 0-100
Method in brief: as §2

[11] = test system: sicklepod (Cassia obtusifolia, CASOB); assay: as above; conditions: 14 days after application; for phytotoxicity rating CASOB: post-emerge, rating scale 0-100
Method in brief: as §2

[12] = test system: redroot pigweed (Amaranthus retroflexus, AMARE); assay: as above; conditions: 14 days after application; for phytotoxicity rating AMARE: post-emerge
Method in brief: as §2

[13] = test system: johnsongrass (Sorghum halepense, SORHA); assay: as above; conditions: 14 days after application; for phytotoxicity rating SORHA: post-emerge, rating scale 0-100
Method in brief: as §2

[14] = test system: large crabgrass (Digitaria sanguinalis, DIGSA); assay: as above; conditions: 14 days after application; for phytotoxicity rating DIGSA: post-emerge, rating scale 0-100
Method in brief: as §2

[15] = test system: velvetleaf (Abutilon theophrasti, ABUTH); assay: as above; conditions: 14 days after application; for phytotoxicity rating ABUTH: post-emerge, rating scale 0-100
Method in brief: as §2

With `COc1c(Cl)cc(F)c(-n2c(=O)cc(C(F)(F)F)n(C)c2=O)c1[N+](=O)[O-]` [Compound 1-5, 3-(4-chloro-6-fluoro-3-methoxy-2-nitrophenyl)-1-methyl-6-trifluoromethyl-2,4(1H, 3H)-pyrimidinedione] the “Pre-emerge Herbicidal Activity CHEAL (phytotoxicity rating, scale 0-100)” value ([1]; 63 g ai/ha) was 60, the “Pre-emerge Herbicidal Activity CHEAL (phytotoxicity rating, scale 0-100)” value ([1]; 250 g ai/ha) was 100 and the “Pre-emerge Herbicidal Activity SETVI (phytotoxicity rating, scale 0-100)” value ([2]; 63 g ai/ha) was 0. For the same molecule, the “Pre-emerge Herbicidal Activity SETVI (phytotoxicity rating, scale 0-100)” value ([2]; 250 g ai/ha) was 90, the “Pre-emerge Herbicidal Activity CASOB (phytotoxicity rating, scale 0-100)” value ([3]; 63 g ai/ha) was 0 and the “Pre-emerge Herbicidal Activity CASOB (phytotoxicity rating, scale 0-100)” value ([3]; 250 g ai/ha) was 0. For the same molecule, the “Pre-emerge Herbicidal Activity ECHCG (phytotoxicity rating, scale 0-100)” value ([4]; 63 g ai/ha) was 0, the “Pre-emerge Herbicidal Activity ECHCG (phytotoxicity rating, scale 0-100)” value ([4]; 250 g ai/ha) was 0 and the “Pre-emerge Herbicidal Activity SORHA (phytotoxicity rating, scale 0-100)” value ([5]; 63 g ai/ha) was 0. For the same molecule, the “Pre-emerge Herbicidal Activity SORHA (phytotoxicity rating, scale 0-100)” value ([5]; 250 g ai/ha) was 20, the “Pre-emerge Herbicidal Activity IPOHE (phytotoxicity rating, scale 0-100)” value ([6]; 63 g ai/ha) was 0 and the “Pre-emerge Herbicidal Activity IPOHE (phytotoxicity rating, scale 0-100)” value ([6]; 250 g ai/ha) was 10. For the same molecule, the “Pre-emerge Herbicidal Activity DIGSA (phytotoxicity rating, scale 0-100)” value ([7]; 63 g ai/ha) was 0, the “Pre-emerge Herbicidal Activity DIGSA (phytotoxicity rating, scale 0-100)” value ([7]; 250 g ai/ha) was 70 and the “Pre-emerge Herbicidal Activity ABUTH (phytotoxicity rating, scale 0-100)” value ([8]; 63 g ai/ha) was 30. For the same molecule, the “Pre-emerge Herbicidal Activity ABUTH (phytotoxicity rating, scale 0-100)” value ([8]; 250 g ai/ha) was 100, the pest or weed control at 63 g/ha ([9]; Chenopodium album, post-emergence, 336 h, 63 g ai/ha, phytotoxicity rating 0-100 (0 no damage, 100 complete death), read-out: Post-emerge Herbicidal Activity CHEAL) was 0% and the pest or weed control at 250 g/ha ([9]; Chenopodium album, post-emergence, 336 h, 250 g ai/ha, phytotoxicity rating 0-100 (0 no damage, 100 complete death), read-out: Post-emerge Herbicidal Activity CHEAL) was 50%. It also gave a pest or weed control at 63 g/ha ([10]; Setaria viridis, post-emergence, 336 h, 63 g ai/ha, phytotoxicity rating 0-100 (0 no damage, 100 complete death), read-out: Post-emerge Herbicidal Activity SETVI) of 0%, a pest or weed control at 250 g/ha ([10]; Setaria viridis, post-emergence, 336 h, 250 g ai/ha, phytotoxicity rating 0-100 (0 no damage, 100 complete death), read-out: Post-emerge Herbicidal Activity SETVI) of 0% and a pest or weed control at 63 g/ha ([11]; Senna obtusifolia, post-emergence, 336 h, 63 g ai/ha, phytotoxicity rating 0-100 (0 no damage, 100 complete death), read-out: Post-emerge Herbicidal Activity CASOB) of 0%. The pest or weed control at 250 g/ha ([11]; Senna obtusifolia, post-emergence, 336 h, 250 g ai/ha, phytotoxicity rating 0-100 (0 no damage, 100 complete death), read-out: Post-emerge Herbicidal Activity CASOB) was 30%, the pest or weed control at 63 g/ha ([12]; Amaranthus retroflexus, post-emergence, 336 h, 63 g ai/ha, phytotoxicity rating 0-100 (0 no damage, 100 complete death), read-out: Post-emerge Herbicidal Activity AMARE) was 0% and the pest or weed control at 250 g/ha ([12]; Amaranthus retroflexus, post-emergence, 336 h, 250 g ai/ha, phytotoxicity rating 0-100 (0 no damage, 100 complete death), read-out: Post-emerge Herbicidal Activity AMARE) was 40%. For the same molecule, the pest or weed control at 63 g/ha ([13]; Sorghum halepense, post-emergence, 336 h, 63 g ai/ha, phytotoxicity rating 0-100 (0 no damage, 100 complete death), read-out: Post-emerge Herbicidal Activity SORHA) was 0%, the pest or weed control at 250 g/ha ([13]; Sorghum halepense, post-emergence, 336 h, 250 g ai/ha, phytotoxicity rating 0-100 (0 no damage, 100 complete death), read-out: Post-emerge Herbicidal Activity SORHA) was 0% and the pest or weed control at 63 g/ha ([14]; Digitaria sanguinalis, post-emergence, 336 h, 63 g ai/ha, phytotoxicity rating 0-100 (0 no damage, 100 complete death), read-out: Post-emerge Herbicidal Activity DIGSA) was 0%. It also gave a pest or weed control at 250 g/ha ([14]; Digitaria sanguinalis, post-emergence, 336 h, 250 g ai/ha, phytotoxicity rating 0-100 (0 no damage, 100 complete death), read-out: Post-emerge Herbicidal Activity DIGSA) of 0%, a pest or weed control at 63 g/ha ([15]; Abutilon theophrasti, post-emergence, 336 h, 63 g ai/ha, phytotoxicity rating 0-100 (0 no damage, 100 complete death), read-out: Post-emerge Herbicidal Activity ABUTH) of 10% and a pest or weed control at 250 g/ha ([15]; Abutilon theophrasti, post-emergence, 336 h, 250 g ai/ha, phytotoxicity rating 0-100 (0 no damage, 100 complete death), read-out: Post-emerge Herbicidal Activity ABUTH) of 60%.
Work on `COC(=O)Nc1c(OC)c(Cl)cc(F)c1-n1c(=O)cc(C(F)(F)F)n(C)c1=O` [Compound 4-1, 3-(4chloro-6-fluoro-3-methoxy-2-methoxycarbonylaminophenyl)-1-methyl-6-trifluoromethyl-2,4(1H, 3H)-pyrimidinedione] yielded a pest or weed control at 63 g/ha ([1]; Chenopodium album, pre-emergence, 336 h, 63 g ai/ha, phytotoxicity rating 0-100, 14 days after application, read-out: Pre-emerge Herbicidal Activity CHEAL) of 100%, a pest or weed control at 250 g/ha ([1]; Chenopodium album, pre-emergence, 336 h, 250 g ai/ha, phytotoxicity rating 0-100, 14 days after application, read-out: Pre-emerge Herbicidal Activity CHEAL) of 100% and a pest or weed control at 63 g/ha ([2]; Setaria viridis, pre-emergence, 336 h, 63 g ai/ha, phytotoxicity rating 0-100, 14 days after application, read-out: Pre-emerge Herbicidal Activity SETVI) of 100%. For the same molecule, the pest or weed control at 250 g/ha ([2]; Setaria viridis, pre-emergence, 336 h, 250 g ai/ha, phytotoxicity rating 0-100, 14 days after application, read-out: Pre-emerge Herbicidal Activity SETVI) was 100%, the pest or weed control at 63 g/ha ([3]; Senna obtusifolia, pre-emergence, 336 h, 63 g ai/ha, phytotoxicity rating 0-100, 14 days after application, read-out: Pre-emerge Herbicidal Activity CASOB) was 95% and the pest or weed control at 250 g/ha ([3]; Senna obtusifolia, pre-emergence, 336 h, 250 g ai/ha, phytotoxicity rating 0-100, 14 days after application, read-out: Pre-emerge Herbicidal Activity CASOB) was 100%. The pest or weed control at 63 g/ha ([4]; Echinochloa crus-galli, pre-emergence, 336 h, 63 g ai/ha, phytotoxicity rating 0-100, 14 days after application, read-out: Pre-emerge Herbicidal Activity ECHCG) was 10%, the pest or weed control at 250 g/ha ([4]; Echinochloa crus-galli, pre-emergence, 336 h, 250 g ai/ha, phytotoxicity rating 0-100, 14 days after application, read-out: Pre-emerge Herbicidal Activity ECHCG) was 100% and the pest or weed control at 63 g/ha ([5]; Sorghum halepense, pre-emergence, 336 h, 63 g ai/ha, phytotoxicity rating 0-100, 14 days after application, read-out: Pre-emerge Herbicidal Activity SORHA) was 60%. For the same molecule, the pest or weed control at 250 g/ha ([5]; Sorghum halepense, pre-emergence, 336 h, 250 g ai/ha, phytotoxicity rating 0-100, 14 days after application, read-out: Pre-emerge Herbicidal Activity SORHA) was 100%, the pest or weed control at 63 g/ha ([6]; Ipomoea, pre-emergence, 336 h, 63 g ai/ha, phytotoxicity rating 0-100, 14 days after application, read-out: Pre-emerge Herbicidal Activity IPOHE) was 100% and the pest or weed control at 250 g/ha ([6]; Ipomoea, pre-emergence, 336 h, 250 g ai/ha, phytotoxicity rating 0-100, 14 days after application, read-out: Pre-emerge Herbicidal Activity IPOHE) was 100%. For the same molecule, the pest or weed control at 63 g/ha ([7]; Digitaria sanguinalis, pre-emergence, 336 h, 63 g ai/ha, phytotoxicity rating 0-100, 14 days after application, read-out: Pre-emerge Herbicidal Activity DIGSA) was 60%, the pest or weed control at 250 g/ha ([7]; Digitaria sanguinalis, pre-emergence, 336 h, 250 g ai/ha, phytotoxicity rating 0-100, 14 days after application, read-out: Pre-emerge Herbicidal Activity DIGSA) was 100% and the pest or weed control at 63 g/ha ([8]; Abutilon theophrasti, pre-emergence, 336 h, 63 g ai/ha, phytotoxicity rating 0-100, 14 days after application, read-out: Pre-emerge Herbicidal Activity ABUTH) was 100%. The pest or weed control at 250 g/ha ([8]; Abutilon theophrasti, pre-emergence, 336 h, 250 g ai/ha, phytotoxicity rating 0-100, 14 days after application, read-out: Pre-emerge Herbicidal Activity ABUTH) was 100%, the “phytotoxicity rating CHEAL” value ([9]; 63 g ai/ha) was 60 and the “phytotoxicity rating CHEAL” value ([9]; 250 g ai/ha) was 98. The “phytotoxicity rating SETVI” value ([10]; 63 g ai/ha) was 0, the “phytotoxicity rating SETVI” value ([10]; 250 g ai/ha) was 10 and the “phytotoxicity rating CASOB” value ([11]; 63 g ai/ha) was 30. The “phytotoxicity rating CASOB” value ([11]; 250 g ai/ha) was 50, the “phytotoxicity rating AMARE” value ([12]; 63 g ai/ha, rating scale 0-100 (0 no damage, 100 complete death)) was 50 and the “phytotoxicity rating AMARE” value ([12]; 250 g ai/ha, rating scale 0-100) was 95. For the same molecule, the “phytotoxicity rating SORHA” value ([13]; 63 g ai/ha) was 0, the “phytotoxicity rating SORHA” value ([13]; 250 g ai/ha) was 20 and the “phytotoxicity rating DIGSA” value ([14]; 63 g ai/ha) was 0. The “phytotoxicity rating DIGSA” value ([14]; 250 g ai/ha) was 0, the “phytotoxicity rating ABUTH” value ([15]; 63 g ai/ha) was 100 and the “phytotoxicity rating ABUTH” value ([15]; 250 g ai/ha) was 100.
